The values below are quoted from earlier work in patent US20120191185A1, “OPHTHALMIC INTRAOCULAR LENS FOR PROMOTING HEALING” (priority 2011, published 2012).

The conditions of series [1]: subconjunctival administration.
The subject of series [2] is posterior capsule opacification. Conditions: rabbits.
For series [3], the system named is lens epithelial cell.
The conditions of series [4]: primates.
The test system of series [5] is corneal anterior stroma. As to conditions: mammals, clinical setting.

With `O=c1[nH]cc(F)c(=O)[nH]1` [5-fluorouracil], the ocular complications entry in series [1] was “corneal epithelial defects and other ocular complications”. Further, in series [2], the “effect on posterior capsule opacification” value is “reduces posterior capsule opacification”.

`COc1cc2c(c(OC)c1OC)-c1ccc(OC)c(=O)cc1[C@@H](NC(C)=O)CC2` [colchicine]: the “inhibition of lens epithelial cell proliferation and migration” value in series [3] is reported as “potent inhibitor”. For the same molecule, the “toxic effect on the optic nerve” value in series [4] is “temporary toxic effect on the optic nerve”.

platelet derived growth factor: the “corneal anterior stroma healing” value in series [5] is “accelerate corneal anterior stroma healing”.
